Experimental data as given in US7759302B2, “Peptidic sulfonamides” (Merck Patent GmbH, priority 2003, dated 2010).

Molecular target: αvβ6 integrin (Homo sapiens, UniProt P06756+P18564)
Assay: Influence of soluble substances on the binding of biotinylated fibronectin to immobilised αvβ6 (ELISA-type competition binding test)
Conditions: competition with biotinylated fibronectin at immobilised αvβ6; standard employed in each experiment
Protocol: The prepared peptides according to the invention together with competing fibronectin were bound in solution to the immobilised αvβ6 receptor, and the Q value as a measure of the selectivity of the binding of the peptide to be tested to αvβ6 was determined. The Q value is calculated from the quotient of the IC50 values of test peptide and a standard. The standard used was the linear Ac-RTDLDSLR-NH2(SEQ ID NO: 22) (WO01/00660; Pytela et al., 1986, Science 231, 1559). The binding test was carried out in detail as follows:
αvβ6 was immobilised on microtitre plates by dilution of the protein solution in TBS++ and subsequent incubation overnight at 4° C. (100 μl/well). Non-specific binding sites were blocked by incubation (2 h; 37° C.) with 3% (w/v) BSA in TBS++ (200 μl/well). Excess BSA was removed by washing three times with TBSA++. […]
Unbound fibronectin and peptides were removed by washing three times with TBSA++. The bound fibronectin was detected by incubation (1 h; 37° C.) with an alkaline phosphatase-coupled antibiotin antibody (1:20000 in TBSA++; 100 μl/well). […] The colour intensity was determined at 405 nm in the ELISA measuring instrument and adjusted against a blank value. […]
IC50 values for the peptides tested were read off from a graph, and the Q value of the peptide was determined therefrom together with the IC50 of the standard.

IC50: < 100 nM
Substance: Ac-RTDLDSLR-NH2 [AC-RTDLDSLR-NH2, Ac-RTDLDSLR-NH2]
